Data taken from patent publication US20070027150A1 (priority 2005, published 2007).

target: His-tagged N-terminal ATP binding domain (amino acid residues 9-236) of HSP90α (Homo sapiens, UniProt P07900); test: HSP90 inhibitor binding potency: TRF competition binding assay; conditions: Table I; read-out: Hsp90 IC50 Range
In short: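 Competition against biotinylated radicicol for binding to the His-tagged 9-236 ATP domain of HSP90α: 2 h, room temperature, HEPES/MgCl2/KCl/BSA buffer. Streptavidin capture, then europium-labeled anti-His antibody and enhancement solution; europium counts give IC50.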

Row | Compound | IC50 [nM]
1 | Cc1nc(N)nc2c1C(=O)CC(c1cccc(Br)c1)C2 (stereo not drawn) [Compound 7, 2-amino-7-(3-bromophenyl)-4-methyl-7,8-dihydroquinazolin-5(6H)-one] | 1000 to 10000
2 | Cc1nc(N)nc2c1C(=O)CC(c1ccccc1N1CCCC1=O)C2 (stereo not drawn) [Compound 163, 2-amino-4-methyl-7-[2-(2-oxo-pyrrolidin-1-yl)-phenyl]-7,8-dihydro-6H-quinazolin-5-one] | 1000 to 10000
3 | COc1cccc(C2=CCCCC2)c1C1CC(=O)c2c(C)nc(N)nc2C1 (stereo not drawn) [Compound 78, 2-amino-7-(2-cyclohex-1-en-1-yl-6-methoxyphenyl)-4-methyl-7,8-dihydroquinazolin-5(6H)-one] | < 1000
4 | Cc1nc(N)nc2c1C(=O)CC(c1c(O)cccc1-c1cccnc1F)C2 (stereo not drawn) [Compound 170, 2-amino-7-[2-(2-fluoro-pyridin-3-yl)-6-hydroxy-phenyl]-4-methyl-7,8-dihydro-6H-quinazolin-5-one] | < 1000
5 | Cc1nc(N)nc2c1C(=O)CC(c1nn(C)cc1-c1cccnc1F)C2 (stereo not drawn) [Compound 63, 2-amino-7-[4-(2-fluoro-pyridin-3-yl)-1-methyl-1H-pyrazol-3-yl]-4-methyl-7,8-dihydro-6H-quinazolin-5-one] | < 1000
6 | Cc1nc(N)nc2c1C(=O)CC(c1nccn1Cc1ccccc1)C2 (stereo not drawn) [Compound 9, 2-amino-7-(1-benzyl-1H-imidazol-2-yl)-4-methyl-7,8-dihydro-6H-quinazolin-5-one] | < 1000
7 | Cc1nc(N)nc2c1C(=O)CC(c1cnccc1-c1ccccc1)C2 (stereo not drawn) [Compound 161, 2-amino-4-methyl-7-(4-phenylpyridin-3-yl)-7,8-dihydroquinazolin-5(6H)-one] | < 1000

The next lines start with the values.

Row | IC50 [nM] | Compound
8 | < 1000 | Cc1ccc(-c2ccccc2C2CC(=O)c3c(C)nc(N)nc3C2)c(F)c1 (stereo not drawn) [Compound 77, 2-amino-7-(2′-fluoro-4′-methyl-1,1′-biphenyl-2-yl)-4-methyl-7,8-dihydroquinazolin-5(6H)-one]
9 | < 1000 | Cc1nc(N)nc2c1C(=O)CC(c1ccccc1-c1cccnc1Cl)C2 (stereo not drawn) [Compound 80, 2-amino-7-[2-(2-chloropyridin-3-yl)phenyl]-4-methyl-7,8-dihydroquinazolin-5(6H)-one]
10 | < 1000 | Cc1cccc(-c2ccccc2C2CC(=O)c3c(C)nc(N)nc3C2)c1F (stereo not drawn) [Compound 126, 2-amino-7-(2′-fluoro-3′-methyl-1,1′-biphenyl-2-yl)-4-methyl-7,8-dihydroquinazolin-5(6H)-one]
11 | < 1000 | Cc1nc(N)nc2c1C(=O)CC(c1ccc(F)cc1-c1ccccc1F)C2 (stereo not drawn) [Compound 86, 2-amino-7-(5,2′-difluoro-biphenyl-2-yl)-4-methyl-7,8-dihydro-6H-quinazolin-5-one]
12 | > 10000 | Cc1nc(N)nc2c1C(=O)CC(c1ccccc1-c1cccc(OC(F)(F)F)c1)C2 (stereo not drawn) [Compound 112, 2-amino-4-methyl-7-[3′-(trifluoromethoxy)-1,1′-biphenyl-2-yl]-7,8-dihydroquinazolin-5(6H)-one]
13 | 1000 to 10000 | COc1cncc(-c2ccccc2C2CC(=O)c3c(C)nc(N)nc3C2)c1 (stereo not drawn) [Compound 73, 2-amino-7-[2-(5-methoxypyridin-3-yl)phenyl]-4-methyl-7,8-dihydroquinazolin-5(6H)-one]
14 | 1000 to 10000 | Cc1nc(N)nc2c1C(=O)CC(c1ccccc1-c1cn[nH]c1)C2 (stereo not drawn) [Compound 39, 2-amino-4-methyl-7-[2-(1H-pyrazol-4-yl)phenyl]-7,8-dihydroquinazolin-5(6H)-one]
15 | < 1000 | Cc1nc(N)nc2c1C(=O)CC(c1cc(F)ccc1-c1cccnc1F)C2 (stereo not drawn) [Compound 88, 2-amino-7-[5-fluoro-2-(2-fluoropyridin-3-yl)phenyl]-4-methyl-7,8-dihydroquinazolin-5(6H)-one]
16 | < 1000 | Cc1nc(N)nc2c1C(=O)CC(c1ccccc1-c1ccccc1C(N)=O)C2 (stereo not drawn) [Compound 90, 2′-(2-amino-4-methyl-5-oxo-5,6,7,8-tetrahydroquinazolin-7-yl)-1,1′-biphenyl-2-carboxamide]
17 | < 1000 | Cc1nc(N)nc2c1C(=O)CC(c1ccccc1Oc1ccccc1F)C2 (stereo not drawn) [Compound 138, 2-amino-7-[2-(2-fluorophenoxy)phenyl]-4-methyl-7,8-dihydroquinazolin-5(6H)-one]

same assay, conditions: Table II; read-out: Hsp90 IC50 Range

Row | Compound | IC50 [nM]
18 | Cc1nc(N)nc2c1C(=O)CC(c1ccc(F)cc1OCCC1CC1)C2 (stereo not drawn) [Compound 262, 2-amino-7-[2-(2-cyclopropyl-ethoxy)-4-fluoro-phenyl]-4-methyl-7,8-dihydro-6H-quinazolin-5-one] | < 1000
19 | C#CCCOc1cc(F)ccc1C1CC(=O)c2c(C)nc(N)nc2C1 (stereo not drawn) [Compound 192, 2-amino-7-(2-but-3-ynyloxy-4-fluoro-phenyl)-4-methyl-7,8-dihydro-6H-quinazolin-5-one] | < 1000
20 | COc1nc(-c2cc(F)ccc2[C@@H]2CC(=O)c3c(C)nc(N)nc3C2)c(C)nc1N [Compound 337, (S)-2-amino-7-[2-(5-amino-6-methoxy-3-methyl-pyrazin-2-yl)-4-fluoro-phenyl]-4-methyl-7,8-dihydro-6H-quinazolin-5-one] | < 1000
21 | COc1cccc(-c2scnc2C2CC(=O)c3c(C)nc(N)nc3C2)n1 (stereo not drawn) [Compound 291, 2-amino-7-[5-(6-methoxy-pyridin-2-yl)-thiazol-4-yl]-4-methyl-7,8-dihydro-6H-quinazolin-5-one] | < 1000
22 | CCc1nc(N)nc2c1C(=O)CC(c1ccccc1)C2 (stereo not drawn) [Compound 210, 2-amino-4-ethyl-7-phenyl-7,8-dihydro-6H-quinazolin-5-one] | > 10000
23 | Cc1nc(N)nc2c1C(=O)CC(c1c(F)cccc1-c1cncnc1)C2 (stereo not drawn) [Compound 218, 2-amino-7-(2-fluoro-6-pyrimidin-5-yl-phenyl)-4-methyl-7,8-dihydro-6H-quinazolin-5-one] | < 1000
24 | COc1nc(-c2cc(F)ccc2[C@@H]2CC(=O)c3c(C)nc(N)nc3C2)cnc1C [Compound 332, (S)-2-amino-7-[4-fluoro-2-(6-methoxy-5-methyl-pyrazin-2-yl)-phenyl]-4-methyl-7,8-dihydro-6H-quinazolin-5-one] | < 1000
25 | COc1cccc(-c2ccccc2C2CC(=O)c3cnc(N)nc3C2)n1 (stereo not drawn) [Compound 246, 2-amino-7-[2-(6-methoxy-pyridin-2-yl)-phenyl]-7,8-dihydro-6H-quinazolin-5-one] | < 1000
26 | Cc1nc(N)nc2c1C(=O)CC(c1ccc(F)cc1OC(C)C)C2 (stereo not drawn) [Compound 176, 2-amino-7-(4-fluoro-2-isopropoxy-phenyl)-4-methyl-7,8-dihydro-6H-quinazolin-5-one] | < 1000

Other lines, results leading:

Row | IC50 [nM] | Compound
27 | < 1000 | Cc1nc(N)nc2c1C(=O)CC(c1c(F)cccc1-c1cccnc1F)C2 (stereo not drawn) [Compound 217, 2-amino-7-[2-fluoro-6-(2-fluoro-pyridin-3-yl)-phenyl]-4-methyl-7,8-dihydro-6H-quinazolin-5-one]
28 | < 1000 | COc1ncccc1-c1ccc(F)cc1C1CC(=O)c2c(C)nc(N)nc2C1 (stereo not drawn) [Compound 285, 2-amino-7-[5-fluoro-2-(2-methoxy-pyridin-3-yl)-phenyl]-4-methyl-7,8-dihydro-6H-quinazolin-5-one]
29 | < 1000 | Cc1nc(N)nc2c1C(=O)CC(c1ncsc1-c1cc(F)ccc1F)C2 (stereo not drawn) [Compound 292, 2-amino-7-[5-(2,5-difluoro-phenyl)-thiazol-4-yl]-4-methyl-7,8-dihydro-6H-quinazolin-5-one]
30 | < 1000 | COc1ccnc(-c2cc(F)ccc2C2CC(=O)c3c(C)nc(N)nc3C2)n1 (stereo not drawn) [Compound 257, 2-amino-7-[4-fluoro-2-(4-methoxy-pyrimidin-2-yl)-phenyl]-4-methyl-7,8-dihydro-6H-quinazolin-5-one]
